Reference: ChEMBL document CHEMBL6120985, “Discovery of a potent PARP1 PROTAC as a chemosensitizer for the treatment of colorectal cancer” (Eur J Med Chem, 2025)
Activity calls are given as the source filed them. The rule behind the calls is not given here.

Assays:
HCT-116 [1] = assay: Synergistic antiproliferative activity against human HCT-116 cells assessed as combination index at 4 uM measured after 72 hrs in presence of 10 nM of SN-38 by CCK-8 method; format: functional
[2] = target: T1, Protein cereblon/Poly [ADP-ribose] polymerase 1 (Homo sapiens, UniProt P09874+Q96SW2); assay: PROTAC activity at CRBN/PARP1 in human HCT-116 cells assessed as degradation of PARP1 at upto 10 uM measured after 24 hrs relative to control; format: cell-based
HCT-116 [3] = assay: Antagonistic antiproliferative activity against human HCT-116 cells assessed as combination index at 2 uM measured after 72 hrs in presence of 0.625 nM of SN-38 by CCK-8 method; format: functional
HCT-116 [4] = assay: Induction of cell cycle arrest in human HCT-116 cells assessed as accumulation of cells at G2/M phase at 1 uM measured after 72 hrs in presence of SN-38 by PI staining based flow cytometry analysis; format: functional
HCT-116 [5] = assay: Downregulation of KRT1 level in human HCT-116 cells at 1 uM in presence of SN-38 by KEGG enrichment analysis; format: functional, cell-based
HCT-116 [6] = assay: Induction of apoptosis in human HCT-116 cells assessed as necrotic cells at 1 uM measured after 72 hrs by annexin V/FITC and PI staining based flow cytometry analysis (reference value: 0.16%); format: functional
LoVo = assay: Cytotoxicity against human LoVo cells assessed as inhibition of cell growth measured after 72 hrs by CCK-8 method; format: functional, cell-based
HCT-116 [7] = assay: Synergistic antiproliferative activity against human HCT-116 cells assessed as combination index at 1 uM measured after 72 hrs in presence of 10 nM of SN-38 by CCK-8 method; format: functional
[8] = Cytotoxicity against human BEAS-2B cells assessed as inhibition of cell growth measured after 72 hrs by CCK-8 method; format: toxicity, cell-based
HCT-116 [9] = assay: Effect on Ku70 protein level in human HCT-116 cells at 1 uM in presence of SN-38 by Western blot analysis; format: functional, cell-based
HCT-116 [10] = assay: Upregulation of CHK1 level in human HCT-116 cells at 1 uM in presence of SN-38 by Western blot analysis; format: functional, cell-based
HCT-116 [11] = assay: Synergistic antiproliferative activity against human HCT-116 cells assessed as combination index at 2 uM measured after 72 hrs in presence of 2.5 nM of SN-38 by CCK-8 method; format: functional
HCT-116 [12] = assay: Induction of apoptosis in human HCT-116 cells assessed as necrotic cells at 1 uM measured after 72 hrs in presence of SN-38 by annexin V/FITC and PI staining based flow cytometry analysis (reference value: 0.16%); format: functional
HCT-116 [13] = assay: Effect on Rad51 protein level in human HCT-116 cells at 1 uM in presence of SN-38 by Western blot analysis; format: functional, cell-based
HCT-116 [14] = assay: Synergistic antiproliferative activity against human HCT-116 cells assessed as combination index at 2 uM measured after 72 hrs in presence of 10 nM of SN-38 by CCK-8 method; format: functional
HCT-116 [15] = assay: Upregulation of CDK1 level in human HCT-116 cells at 1 uM in presence of SN-38 by Western blot analysis; format: functional, cell-based
[16] = target: T1, Protein cereblon/Poly [ADP-ribose] polymerase 1; assay: PROTAC activity at CRBN/PARP1 in human HCT-116 cells assessed as maximum degradation of PARP1 relative to control; format: cell-based
HCT-116 [17] = assay: Synergistic antiproliferative activity against human HCT-116 cells assessed as combination index at 0.5 uM measured after 72 hrs in presence of 5 nM of SN-38 by CCK-8 method; format: functional
[18] = target: T1, Protein cereblon/Poly [ADP-ribose] polymerase 1; assay: PROTAC activity at CRBN/PARP1 in human RKO cells assessed as degradation of PARP1 at upto 10 uM measured after 24 hrs relative to control; format: cell-based
HCT-116 [19] = assay: Effect on BRCA level in human HCT-116 cells at 1 uM in presence of SN-38 by Western blot analysis; format: functional, cell-based
HCT-116 [20] = assay: Induction of apoptosis in human HCT-116 cells assessed as early apoptotic cells at 1 uM measured after 72 hrs by annexin V/FITC and PI staining based flow cytometry analysis (reference value: 3.43%); format: functional
[21] = target: T1, Protein cereblon/Poly [ADP-ribose] polymerase 1; assay: PROTAC activity at CRBN/PARP1 in human HCT-116 cells assessed as degradation of PARP1 at 1 uM in presence of thalidomide; format: cell-based
[22] = Potency index, ratio of SK-575 IC50 to test compound IC50 for cytotoxicity against human LoVo cells assessed as inhibition of cell growth measured after 72 hrs by CCK-8 method; format: functional
HCT-116 [23] = assay: Effect on p53 protein level in human HCT-116 cells at 1 uM in presence of SN-38 by Western blot analysis; format: functional, cell-based
HCT-116 [24] = assay: Upregulation of ATP5PD level in human HCT-116 cells at 1 uM in presence of SN-38 by KEGG enrichment analysis; format: functional, cell-based
HCT-116 [25] = assay: Downregulation of […] level in human HCT-116 cells at 1 uM in presence of SN-38 by Western blot analysis; format: functional, cell-based

T1 sequence (P09874 2-1014 limits assumed): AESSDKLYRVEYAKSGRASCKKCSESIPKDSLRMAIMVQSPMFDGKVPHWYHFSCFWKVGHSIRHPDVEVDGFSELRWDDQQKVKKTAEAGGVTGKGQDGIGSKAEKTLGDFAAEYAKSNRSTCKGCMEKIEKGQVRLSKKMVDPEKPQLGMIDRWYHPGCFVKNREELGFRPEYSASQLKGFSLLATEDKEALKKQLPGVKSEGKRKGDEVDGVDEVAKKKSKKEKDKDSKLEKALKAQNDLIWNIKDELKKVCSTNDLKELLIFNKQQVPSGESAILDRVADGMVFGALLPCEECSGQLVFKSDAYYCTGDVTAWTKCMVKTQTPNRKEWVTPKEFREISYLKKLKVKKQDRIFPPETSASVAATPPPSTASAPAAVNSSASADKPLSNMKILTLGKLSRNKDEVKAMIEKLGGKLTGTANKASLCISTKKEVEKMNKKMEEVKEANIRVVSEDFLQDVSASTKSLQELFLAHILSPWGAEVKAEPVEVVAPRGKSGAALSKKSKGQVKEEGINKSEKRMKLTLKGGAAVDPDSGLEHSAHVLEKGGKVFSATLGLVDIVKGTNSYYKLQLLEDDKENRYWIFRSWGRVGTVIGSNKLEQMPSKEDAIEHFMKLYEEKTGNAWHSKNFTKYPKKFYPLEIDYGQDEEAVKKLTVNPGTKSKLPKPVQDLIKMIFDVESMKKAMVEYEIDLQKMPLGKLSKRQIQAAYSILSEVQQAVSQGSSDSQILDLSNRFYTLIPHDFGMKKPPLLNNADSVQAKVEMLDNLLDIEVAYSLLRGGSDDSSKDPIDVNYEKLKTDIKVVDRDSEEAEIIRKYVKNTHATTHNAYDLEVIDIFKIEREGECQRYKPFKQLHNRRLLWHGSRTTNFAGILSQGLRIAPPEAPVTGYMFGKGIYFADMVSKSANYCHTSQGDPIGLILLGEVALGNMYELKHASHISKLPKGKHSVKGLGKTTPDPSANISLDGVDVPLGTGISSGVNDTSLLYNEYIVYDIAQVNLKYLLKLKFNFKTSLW
T1 sequence (Q96SW2 whole entry partner): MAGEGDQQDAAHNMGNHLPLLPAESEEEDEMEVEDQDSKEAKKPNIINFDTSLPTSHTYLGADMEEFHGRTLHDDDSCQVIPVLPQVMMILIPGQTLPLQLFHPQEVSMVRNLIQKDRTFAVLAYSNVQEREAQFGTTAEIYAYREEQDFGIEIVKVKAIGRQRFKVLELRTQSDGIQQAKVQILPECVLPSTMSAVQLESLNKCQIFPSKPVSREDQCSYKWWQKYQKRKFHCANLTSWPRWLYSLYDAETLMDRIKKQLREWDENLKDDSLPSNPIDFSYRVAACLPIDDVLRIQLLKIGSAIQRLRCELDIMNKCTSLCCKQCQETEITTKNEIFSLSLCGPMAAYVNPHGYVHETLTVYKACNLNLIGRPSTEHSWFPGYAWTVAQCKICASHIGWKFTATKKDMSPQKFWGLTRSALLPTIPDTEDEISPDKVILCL

**Q.** With `NC(=O)c1cccc2cn(-c3ccc([C@@H]4CCCN(CCC5CCN(CCC6CCN(CC7CCN(c8ccc9c(c8)C(=O)N(C8CCC(=O)NC8=O)C9=O)CC7)CC6)CC5)C4)cc3)nc12` (stereo partly specified) as the compound, how does the CI (HCT-116 [1]) read?
**A.** 0.538

**Q.** And the Emax [2]?
**A.** 96.5%

**Q.** What about the CI (HCT-116 [3]) of the same compound?
**A.** 1.241

**Q.** What about the Activity (HCT-116 [4]) of the same compound?
**A.** Active

**Q.** What about the Activity (HCT-116 [5]) of the same compound?
**A.** Active

**Q.** And the Activity (HCT-116 [6])?
**A.** 2.01%

**Q.** And the IC50 (LoVo)?
**A.** 2.84 µM

**Q.** And the CI (HCT-116 [7])?
**A.** 0.698

**Q.** And the IC50 at 72 h [8]?
**A.** 8.29 µM

**Q.** And the Activity (HCT-116 [9])?
**A.** inactive

**Q.** And the Activity (HCT-116 [10])?
**A.** Active

**Q.** And the CI (HCT-116 [11])?
**A.** 0.856

**Q.** And the Activity (HCT-116 [12])?
**A.** 10.2%

**Q.** And the Activity (HCT-116 [13])?
**A.** inactive

**Q.** And the CI (HCT-116 [14])?
**A.** 0.766

**Q.** And the Activity (HCT-116 [15])?
**A.** Active

**Q.** And the Emax [16]?
**A.** 86.2%

**Q.** What about the CI (HCT-116 [17]) of the same compound?
**A.** 0.756

**Q.** And the Emax [18]?
**A.** 95.9%

**Q.** And the Activity (HCT-116 [19])?
**A.** inactive

**Q.** And the Activity (HCT-116 [20])?
**A.** 4.03%

**Q.** What about the Activity [21] of the same compound?
**A.** inactive

**Q.** What about the “Ratio IC50” value [22] of the same compound?
**A.** <3.5

**Q.** And the Activity (HCT-116 [23])?
**A.** inactive

**Q.** And the Activity (HCT-116 [24])?
**A.** Active

**Q.** And the Activity (HCT-116 [25])?
**A.** Active
